Columns and labels:
[1] = target: T1, recombinant OVGP1 (buffalo oviduct-specific glycoprotein) (Bubalus bubalis, UniProt A4Z8Y1); assay: intrinsic Trp fluorescence quenching (ex […] nm); type: binding; conditions: 10 uM protein, 5-15 mM ligand, 25 mM phosphate buffered saline, pH 7.2, 298 K
T1 construct: gene OVN; recombinant from Escherichia coli, ~58 kDa
T1 sequence (A4Z8Y1 22-540): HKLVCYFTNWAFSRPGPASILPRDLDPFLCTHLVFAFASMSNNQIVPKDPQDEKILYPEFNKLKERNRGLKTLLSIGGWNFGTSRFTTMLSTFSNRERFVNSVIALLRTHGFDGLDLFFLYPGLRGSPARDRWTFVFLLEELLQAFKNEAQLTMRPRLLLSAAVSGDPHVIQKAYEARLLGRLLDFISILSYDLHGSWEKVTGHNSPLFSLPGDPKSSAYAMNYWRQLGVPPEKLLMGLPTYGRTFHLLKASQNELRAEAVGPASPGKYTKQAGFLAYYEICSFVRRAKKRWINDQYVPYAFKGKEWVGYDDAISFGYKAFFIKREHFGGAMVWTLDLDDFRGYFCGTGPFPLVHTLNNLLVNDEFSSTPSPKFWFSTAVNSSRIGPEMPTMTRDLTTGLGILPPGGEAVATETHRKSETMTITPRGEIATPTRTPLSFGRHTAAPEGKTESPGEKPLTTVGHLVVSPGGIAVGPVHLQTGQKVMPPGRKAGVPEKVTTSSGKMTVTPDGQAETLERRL

[2] = target: T2, native OVGP1 (buffalo oviduct-specific glycoprotein) (Bubalus bubalis, UniProt A4Z8Y1); assay: intrinsic Trp fluorescence quenching (ex […] nm); type: binding; conditions: 10 uM protein, 5-15 mM ligand, 25 mM phosphate buffered saline, pH 7.2, 298 K
T2 construct: gene OVN; native, purified to homogeneity from buffalo oviducts; ~55-90 kDa; glycosylated; secreted mature form (precursor 540 aa, signal peptide 21 aa); monomer
T2 sequence (A4Z8Y1 22-540): T1 sequence (A4Z8Y1 22-540)

Structure (SMILES)	intrinsic Trp fluorescence quenching (ex 280 nm) [1]	intrinsic Trp fluorescence quenching (ex 280 nm) [2]
CC(=O)N[C@H]1C(O)O[C@H](CO)[C@H](O)[C@@H]1O (stereo partly drawn) [GalNAc]	monosaccharides i.e. GlcNAc, GalNAc and mannose complexes of both native and recombinant OVGP1	monosaccharides i.e. GlcNAc, GalNAc and mannose complexes of both native and recombinant OVGP1
CC(=O)N[C@H]1C(O)O[C@H](CO)[C@@H](O)[C@@H]1O (stereo partly drawn) [GlcNAc]	fluorescence intensity of both native and recombinant OVGP1 decreased with increasing concentrations of ligands	fluorescence intensity of both native and recombinant OVGP1 decreased with increasing concentrations of ligands
OC[C@H]1OC(O)[C@@H](O)[C@@H](O)[C@@H]1O (stereo partly drawn) [mannose]	monosaccharides i.e. GlcNAc, GalNAc and mannose complexes of both native and recombinant OVGP1	monosaccharides i.e. GlcNAc, GalNAc and mannose complexes of both native and recombinant OVGP1
